Assay results reported in patent US20240058408A1, “COMPOSITION FOR PREVENTING OR TREATING MACULAR DEGENERATION CONTAINING GINSENG BERRY EXTRACT” (HOLISTIC BIO CO., LTD., priority 2020, published 2024).

Tested on: ARPE-19 cells
Experiment: Cell protection against blue light-induced photooxidation of A2E, extract treated after A2E
Type: cell-based
Conditions: Homo sapiens, ARPE-19, 20 min; 30 μM after A2E 20 μM (positive control), blue light 430 nm 6000 lux 20 min; read-out: cell viability compared to the normal group
Procedure: To investigate the photooxidation by blue light induction (post-treatment), ARPE-19 cells were seeded to a 96-well plate at 1×10^4 cell/well and then incubated→(24 hr later) A2E (20 μM) pre-treated once→(after 24 hr) post-treated with a ginseng berry extract (25, 50, 100 μg/ml) once→(after 24 hr) irradiated with blue light (6000 lux, 20 min)→and then, (after 24 hr) the cell viability was measured by using the cell count kit. Since the A2E accumulated in human retinal pigment epithelial cells (ARPE-19 cells) is known to induce cytotoxicity when irradiated with blue light (BL), cell protective capability and cell viability against blue light-induced photooxidation were analyzed. Human retinal pigment epithelial cells (ARPE-19 cells) were aliquoted in a 96-well tissue culture plate at a density of 1×10^4 cells/well and cultured for 24 hours. After treating with A2E at a concentration of 20 μM and culturing for 24 hours, the experimental group was treated with 25, 50, and 100 μg/mL of the ginseng berry extract, a positive control group was treated with 30 μM of lutein instead of the ginseng berry extract, and A2E was accumulated in a negative control group without preliminary drug treatment. After culturing for 24 hours, blue light (BL, 430 nm, 6000 lux) was irradiated for 20 minutes, and after 24 hours, the cell viability was measured by using the cell count kit.

SMILES: CC1=C[C@H](O)CC(C)(C)[C@H]1/C=C/C(C)=C/C=C/C(C)=C/C=C/C=C(C)/C=C/C=C(C)/C=C/C1=C(C)C[C@@H](O)CC1(C)C [lutein]
- viability at 30 µM: 88.2%
